Values after ≈ are worked out from the molar mass of the structure shown.
How the values were obtained:
Candida parapsilosis = assay: Antifungal activity against Candida parapsilosis after 24 hrs by serial dilution method; assay type: functional; conditions: Lodderomyces parapsilosis
Nannizzia gypsea = assay: Antifungal activity against Microsporum gypseum by serial dilution method; assay type: functional
Cryptococcus neoformans = assay: Antifungal activity against Cryptococcus neoformans after 72 hrs by serial dilution method; assay type: functional
Nakaseomyces glabratus = assay: Antifungal activity against Candida glabrata after 24 hrs by serial dilution method; assay type: functional
Candida albicans = assay: Antifungal activity against Candida albicans after 24 hrs by serial dilution method; assay type: functional
Trichophyton rubrum = assay: Antifungal activity against Trichophyton rubrum by serial dilution method; assay type: functional
Aspergillus fumigatus = assay: Antifungal activity against Aspergillus fumigatus after 7 days by serial dilution method; assay type: functional; conditions: 168 h
[1] = Kinetic solubility of the compound in PBS buffer at pH 7.4; assay type: physicochemical; conditions: read-out: Kinetic_solubility

Structure (SMILES) | MIC80 (Candida parapsilosis) | MIC80 (Nannizzia gypsea) | MIC80 (Cryptococcus neoformans) | MIC80 (Nakaseomyces glabratus) | MIC80 (Candida albicans) | MIC80 (Trichophyton rubrum) | MIC80 (Aspergillus fumigatus) | solubility kinetic [1]
O=C1c2ccoc2-c2nccc3ccnc1c23 | > 64 mg/L | 16 mg/L (≈ 72 µM) | 8 mg/L (≈ 36 µM) | 64 mg/L (≈ 288 µM) | 32 mg/L (≈ 144 µM) | 8 mg/L (≈ 36 µM) | 32 mg/L (≈ 144 µM) | –
O=C1c2occc2-c2nccc3ccnc1c23 | > 64 mg/L | 16 mg/L (≈ 72 µM) | 16 mg/L (≈ 72 µM) | 32 mg/L (≈ 144 µM) | 32 mg/L (≈ 144 µM) | 8 mg/L (≈ 36 µM) | 32 mg/L (≈ 144 µM) | –
O=C1c2ccccc2-c2nccc3ccnc1c23 [SAMPANGINE] | 4 mg/L (≈ 17.2 µM) | > 64 mg/L | 2 mg/L (≈ 8.61 µM) | 0.125 mg/L (≈ 0.538 µM) | 0.5 mg/L (≈ 2.15 µM) | 16 mg/L (≈ 68.9 µM) | 16 mg/L (≈ 68.9 µM) | 0.0126 mg/mL (≈ 54.3 µM)
Cn1ccc2c1C(=O)c1nccc3ccnc-2c13 | > 64 mg/L | > 64 mg/L | 8 mg/L (≈ 34 µM) | 32 mg/L (≈ 136 µM) | 64 mg/L (≈ 272 µM) | 16 mg/L (≈ 68 µM) | 64 mg/L (≈ 272 µM) | 0.022 mg/mL (≈ 93.5 µM)
CC(=O)Nc1ccc(-c2cc3ccnc4c3c(n2)-c2sccc2C4=O)cc1 | > 64 mg/L | > 64 mg/L | > 64 mg/L | > 64 mg/L | 32 mg/L (≈ 86.2 µM) | > 64 mg/L | > 64 mg/L | –
Cc1ccccc1-c1cc2ccnc3c2c(n1)-c1sccc1C3=O | > 64 mg/L | > 64 mg/L | > 64 mg/L | > 64 mg/L | 32 mg/L (≈ 97.4 µM) | 32 mg/L (≈ 97.4 µM) | > 64 mg/L | –
COc1cnc2c3c(nccc13)-c1sccc1C2=O | > 64 mg/L | > 64 mg/L | > 64 mg/L | > 64 mg/L | > 64 mg/L | > 64 mg/L | > 64 mg/L | –
O=C1c2ccsc2-c2nccc3c(Cl)cnc1c23 | > 64 mg/L | 0.125 mg/L (≈ 0.458 µM) | 0.5 mg/L (≈ 1.83 µM) | 0.5 mg/L (≈ 1.83 µM) | 32 mg/L (≈ 117 µM) | 2 mg/L (≈ 7.33 µM) | 2 mg/L (≈ 7.33 µM) | –
OC(Cn1cncn1)(Cn1cncn1)c1ccc(F)cc1F [FLUCONAZOLE] | 1 mg/L (≈ 3.27 µM) | 16 mg/L (≈ 52.2 µM) | 0.25 mg/L (≈ 0.816 µM) | 0.25 mg/L (≈ 0.816 µM) | 0.5 mg/L (≈ 1.63 µM) | 0.5 mg/L (≈ 1.63 µM) | > 64 mg/L | –
O=C1c2cc(Cl)sc2-c2nccc3c(Cl)cnc1c23 | > 64 mg/L | 8 mg/L (≈ 26 µM) | > 64 mg/L | > 64 mg/L | 32 mg/L (≈ 104 µM) | > 64 mg/L | > 64 mg/L | –
CC1(C)CC2=C(O1)C(=O)c1nccc3ccnc2c13 | > 64 mg/L | > 64 mg/L | 2 mg/L (≈ 7.93 µM) | 0.125 mg/L (≈ 0.495 µM) | > 64 mg/L | 8 mg/L (≈ 31.7 µM) | 1 mg/L (≈ 3.96 µM) | 0.027 mg/mL (≈ 107 µM)
O=C1c2ccsc2-c2nc(-c3ccccc3)cc3ccnc1c23 | > 64 mg/L | > 64 mg/L | 4 mg/L (≈ 12.7 µM) | > 64 mg/L | 32 mg/L (≈ 102 µM) | 16 mg/L (≈ 50.9 µM) | > 64 mg/L | –
Cn1cc2c(c1)-c1nccc3ccnc(c13)C2=O | > 64 mg/L | > 64 mg/L | > 64 mg/L | > 64 mg/L | > 64 mg/L | > 64 mg/L | > 64 mg/L | 0.017 mg/mL (≈ 72.3 µM)
O=C1c2cc(Br)sc2-c2nccc3ccnc1c23 | 64 mg/L (≈ 202 µM) | 1 mg/L (≈ 3.15 µM) | 4 mg/L (≈ 12.6 µM) | 4 mg/L (≈ 12.6 µM) | 8 mg/L (≈ 25.2 µM) | 2 mg/L (≈ 6.31 µM) | 4 mg/L (≈ 12.6 µM) | –
O=C1c2ccsc2-c2nc(-c3cccnc3)cc3ccnc1c23 | > 64 mg/L | 32 mg/L (≈ 101 µM) | 32 mg/L (≈ 101 µM) | > 64 mg/L | 32 mg/L (≈ 101 µM) | > 64 mg/L | > 64 mg/L | –
CN1CCN(c2cnc3c4c(nccc24)-c2sccc2C3=O)CC1 | > 64 mg/L | > 64 mg/L | 64 mg/L (≈ 190 µM) | 64 mg/L (≈ 190 µM) | > 64 mg/L | > 64 mg/L | > 64 mg/L | –
O=C1c2ccsc2-c2nccc3c(Br)cnc1c23 | 16 mg/L (≈ 50.4 µM) | 0.5 mg/L (≈ 1.58 µM) | 4 mg/L (≈ 12.6 µM) | 4 mg/L (≈ 12.6 µM) | 4 mg/L (≈ 12.6 µM) | 2 mg/L (≈ 6.31 µM) | 8 mg/L (≈ 25.2 µM) | –
O=C1c2ccsc2-c2nccc3ccnc1c23 | 8 mg/L (≈ 33.6 µM) | 2 mg/L (≈ 8.39 µM) | 0.25 mg/L (≈ 1.05 µM) | 4 mg/L (≈ 16.8 µM) | 4 mg/L (≈ 16.8 µM) | 2 mg/L (≈ 8.39 µM) | 1 mg/L (≈ 4.2 µM) | 0.048 mg/mL (≈ 201 µM)

Reference: ChEMBL document CHEMBL3351531, “Scaffold hopping of sampangine: discovery of potent antifungal lead compound against Aspergillus fumigatus and Cryptococcus neoformans” (Bioorg Med Chem Lett, 2014)
